The nature of the data set: Stability studies of sirolimus particles packed in vacuum sealed impermeable container at 25° C. and 60% RH, impurities by gradient HPLC. It is filed as physicochemical. The note with it: three months. From the text: Sirolimus particles (d90-4.1 micron) were packed in a bag made up of laminate having a polyester and a polyethylene layer wherein the layers have a thickness of 12 micron and 75 micron, respectively. The bag was sealed under vacuum. The vacuum sealed bag was put into second bag made up of laminate having polyester, aluminium foil, polyester and polyethylene layer wherein the layers have a thickness of 12 micron, 12 micron, 12 micron and 75 microns, respectively. The second bag was sealed under vacuum and was subjected to stability studies at 25° C. and 60% RH for three months.
Quantitative determination was carried out using Gradient High Performance Liquid Chromatography with a mixture of ammonium phosphate buffer and an organic phase (acetonitrile and tetrahydrofuran) as the mobile phase, ACE C18, HL, 5 μm column as a stationary phase and a UV detector.

As to `CO[C@H]1C[C@@H]2CC[C@@H](C)[C@@](O)(O2)C(=O)C(=O)N2CCCC[C@H]2C(=O)O[C@H]([C@H](C)C[C@@H]2CC[C@@H](O)[C@H](OC)C2)CC(=O)[C@H](C)/C=C(\C)[C@@H](O)[C@@H](OC)C(=O)[C@H](C)C[C@H](C)/C=C/C=C/C=C/1C` [sirolimus particles, Sirolimus], the Stability on storage entry is on record as “stable”.

Values taken from US20100268187A1, “PACKAGING FOR SIROLIMUS AND COMPOSITION THEREOF” (Ranbaxy Laboratories Limited, priority 2009, published 2010).
